The NIST ThermoML archive (doi:10.1016/j.fluid.2009.09.015)

Key:
[1] = Liquid; for mass density: 298 K, Vibrating tube method; for mass density / viscosity: 101.33 kPa; for viscosity: 298.15 K, Capillary tube (Ostwald / Ubbelohde) method; for Normal boiling temperature: Ebulliometric method (Recirculating still)
[2] = refractive index (Na D-line) (dimensionless); conditions: 298.15 K; 101.33 kPa; Liquid; ATAGO RX-5000 refractometer with Hero Therm thermostat
[3] = xn = mol fraction of the nth substance listed; conditions: 298.15 K, 101 kPa, Liquid; for viscosity: Capillary tube (Ostwald / Ubbelohde) method; for mass density: Vibrating tube method
[4] = refractive index (Na D-line) (dimensionless); xn = mol fraction of the nth substance listed; conditions: 298.15 K, 101 kPa, Liquid, ATAGO RX-5000 refractometer with Hero Therm thermostat

CCCCCCCCn1cc[n+](C)c1.O=S(=O)([N-]S(=O)(=O)C(F)(F)F)C(F)(F)F
Conditions	mass density [kg/m3]	refractive index	viscosity [mPa·s]
[1]	1320.59	–	92.51
[2]	–	1.43298	–

CCCCCCCCn1cc[n+](C)c1.O=S(=O)([N-]S(=O)(=O)C(F)(F)F)C(F)(F)F + CC(=O)OC(C)C
Conditions	mass density, [3] [kg/m3]	refractive index, [4]	viscosity, [3] [mPa·s]
x2 = 0.0415	1314.43	1.43222	81.81
x2 = 0.0984	1305.77	1.4313	70.33
x2 = 0.1644	1294.72	1.43009	58.16
x2 = 0.2055	1287.14	1.42923	51.89
x2 = 0.301	1267.67	1.42702	38.25
x2 = 0.3956	1244.68	1.42458	26.57
x2 = 0.4996	1214.35	1.42091	17.09
x2 = 0.5837	1184.33	1.41742	11.42
x2 = 0.7048	1129.29	1.41083	5.785
x2 = 0.8036	1068.65	1.40324	2.993
x2 = 0.8991	988.94	1.39275	1.389

CCCCCCCCn1cc[n+](C)c1.O=S(=O)([N-]S(=O)(=O)C(F)(F)F)C(F)(F)F + CC(C)O
Conditions	mass density, [3] [kg/m3]	refractive index, [4]	viscosity, [3] [mPa·s]
x2 = 0.0331	1316.64	1.43251	85.24
x2 = 0.066	1312.4	1.43205	78.1
x2 = 0.105	1307.22	1.43149	71.48
x2 = 0.1823	1295.84	1.43031	60.13
x2 = 0.2732	1280.29	1.42862	47.98
x2 = 0.3284	1269.48	1.42746	39.87
x2 = 0.4097	1250.88	1.42551	33.13
x2 = 0.5055	1224.13	1.42269	24.79
x2 = 0.5848	1196.42	1.41988	19.09
x2 = 0.6747	1155.99	1.41568	13.79
x2 = 0.7832	1087.54	1.40856	8.606
x2 = 0.8966	972.52	1.39645	4.615

CC(=O)OC(C)C [1-methylethyl ethanoate]
Conditions	Normal boiling temperature [°C]	mass density [kg/m3]	refractive index	viscosity [mPa·s]
[1]	88.30	866.21	–	0.481
[2]	–	–	1.3748	–

CC(=O)OC(C)C [1-methylethyl ethanoate] + CC(C)O
Conditions	mass density, [3] [kg/m3]	refractive index, [4]	viscosity, [3] [mPa·s]
x1 = 0.1199	793.54	1.37417	1.278
x1 = 0.2041	802.03	1.37374	1.021
x1 = 0.294	810.58	1.37344	0.812
x1 = 0.3802	818.32	1.3733	0.722
x1 = 0.4855	827.39	1.37331	0.635
x1 = 0.5877	835.68	1.37339	0.563
x1 = 0.7138	845.52	1.37369	0.538
x1 = 0.7681	849.64	1.37383	0.515
x1 = 0.8777	857.56	1.37419	0.5

CC(C)O [propan-2-ol]
Conditions	Normal boiling temperature [°C]	mass density [kg/m3]	refractive index	viscosity [mPa·s]
[1]	82.22	780.88	–	2.073
[2]	–	–	1.37502	–
